The assay deals with BCR-ABL+ FL 5.12 p190 cells. The experiment in a line: cells. The settings on record: Mus musculus, FL5.12, read-out: IC50 of dasatinib without ChNPs.

The text below walks through data of patent US11021545B2, “Multimodal cancer therapy comprising chimeric viral/nonviral nanoparticles and anticancer agents” (The Regents of the University of California, priority 2018, dated 2021).

Method: Viability was tested three days after delivery. […] After 24 h, PBS, BIM AAV alone, MCL-1 siRNA alone, mixture of BIM AAV and siRNA, and various ChNPs (Null/Scr, Null/MCL-1, BIM/Scr, BIM/MCL-1 ChNPs) are added to the cells at different BIM AAV and MCL-1 siRNA concentrations. To measure cell viability, the cells maintained with fresh media everyday are pelleted by centrifugation (2000 rpm, 5 min, 4° C.) and resuspended in fresh media. The cells in 90 μL medium then are transferred into a 96-well plate where MTT (5 mg/mL in 10 μL PBS) is subsequently added. After 4 h of incubation at 37° C., the well plate is centrifuged at 2000 rpm and 4° C. for 5 min, and the media is replaced by 100 μL DMSO per well. The relative cell viability is quantified by comparing absorptions at 570 nm using a microplate reader (Synergy H1, Biotek), based on the absorption in the wells containing nontreated cells.

The IC50 is the concentration that gives 50% inhibition. With `Cc1nc(Nc2ncc(C(=O)Nc3c(C)cccc3Cl)s2)cc(N2CCN(CCO)CC2)n1` [dasatinib], the IC50 turned out to be 1 nM.
